In the kinase profiling compilation of Christmann-Franck et al. (2016):

Key:
Assay in all cases: KINOMEscan competition binding
Conditions in all cases: compound 10.0 µM
ACVR2A (human) = ACVR2A (human) (UniProt P27037)
AURKB (human) = AURKB (human) (UniProt Q96GD4)
CAMK1G (human) = CAMK1G (human) (UniProt Q96NX5)
CDK16 (human) = CDK16 (human) (UniProt Q00536)
CDK19 (human) = CDK19 (human) (UniProt Q9BWU1)
CDK8 (human) = CDK8 (human) (UniProt P49336)
CSNK1G2 (human) = CSNK1G2 (human) (UniProt P78368)
CSNK2A1 (human) = CSNK2A1 (human) (UniProt P68400)
DMPK (human) = DMPK (human) (UniProt Q09013)
EIF2AK2 (human) = EIF2AK2 (human) (UniProt P19525)
[1] = system: EIF2AK4 KD2 (human), Q9P2K8 [S808G]
EPHB1 (human) = EPHB1 (human) (UniProt P54762)
FGR (human) = FGR (human) (UniProt P09769)
FLT1 (human) = FLT1 (human) (UniProt P17948)
IRAK3 (human) = IRAK3 (human) (UniProt Q9Y616)
KDR (human) = KDR (human) (UniProt P35968)
[2] = system: KIT (human), P10721 [V559D]
MAP2K1 (human) = MAP2K1 (human) (UniProt Q02750)
MAP2K2 (human) = MAP2K2 (human) (UniProt P36507)
MAP2K6 (human) = MAP2K6 (human) (UniProt P52564)
MAP4K3 (human) = MAP4K3 (human) (UniProt Q8IVH8)
NEK6 (human) = NEK6 (human) (UniProt Q9HC98)
NEK9 (human) = NEK9 (human) (UniProt Q8TD19)
NTRK2 (human) = NTRK2 (human) (UniProt Q16620)
PAK1 (human) = PAK1 (human) (UniProt Q13153)
PDGFRA (human) = PDGFRA (human) (UniProt P16234)
PIP4K2B (human) = PIP4K2B (human) (UniProt P78356)
PRKAA2 (human) = PRKAA2 (human) (UniProt P54646)
PRKCD (human) = PRKCD (human) (UniProt Q05655)
RIOK2 (human) = RIOK2 (human) (UniProt Q9BVS4)
RIPK2 (human) = RIPK2 (human) (UniProt O43353)
RPS6KA1 KD1 (human) = RPS6KA1 KD1 (human) (UniProt Q15418)
RPS6KA1 KD2 (human) = RPS6KA1 KD2 (human) (UniProt Q15418)
RPS6KA4 KD2 (human) = RPS6KA4 KD2 (human) (UniProt O75676)
SGK110 (human) = SGK110 (human) (UniProt P0C264)
STK17A (human) = STK17A (human) (UniProt Q9UEE5)
STK33 (human) = STK33 (human) (UniProt Q9BYT3)
TTK (human) = TTK (human) (UniProt P33981)
ULK2 (human) = ULK2 (human) (UniProt Q8IYT8)
WEE2 (human) = WEE2 (human) (UniProt P0C1S8)

Chain of NEK9 (human) (Q8TD19 whole entry, looked up): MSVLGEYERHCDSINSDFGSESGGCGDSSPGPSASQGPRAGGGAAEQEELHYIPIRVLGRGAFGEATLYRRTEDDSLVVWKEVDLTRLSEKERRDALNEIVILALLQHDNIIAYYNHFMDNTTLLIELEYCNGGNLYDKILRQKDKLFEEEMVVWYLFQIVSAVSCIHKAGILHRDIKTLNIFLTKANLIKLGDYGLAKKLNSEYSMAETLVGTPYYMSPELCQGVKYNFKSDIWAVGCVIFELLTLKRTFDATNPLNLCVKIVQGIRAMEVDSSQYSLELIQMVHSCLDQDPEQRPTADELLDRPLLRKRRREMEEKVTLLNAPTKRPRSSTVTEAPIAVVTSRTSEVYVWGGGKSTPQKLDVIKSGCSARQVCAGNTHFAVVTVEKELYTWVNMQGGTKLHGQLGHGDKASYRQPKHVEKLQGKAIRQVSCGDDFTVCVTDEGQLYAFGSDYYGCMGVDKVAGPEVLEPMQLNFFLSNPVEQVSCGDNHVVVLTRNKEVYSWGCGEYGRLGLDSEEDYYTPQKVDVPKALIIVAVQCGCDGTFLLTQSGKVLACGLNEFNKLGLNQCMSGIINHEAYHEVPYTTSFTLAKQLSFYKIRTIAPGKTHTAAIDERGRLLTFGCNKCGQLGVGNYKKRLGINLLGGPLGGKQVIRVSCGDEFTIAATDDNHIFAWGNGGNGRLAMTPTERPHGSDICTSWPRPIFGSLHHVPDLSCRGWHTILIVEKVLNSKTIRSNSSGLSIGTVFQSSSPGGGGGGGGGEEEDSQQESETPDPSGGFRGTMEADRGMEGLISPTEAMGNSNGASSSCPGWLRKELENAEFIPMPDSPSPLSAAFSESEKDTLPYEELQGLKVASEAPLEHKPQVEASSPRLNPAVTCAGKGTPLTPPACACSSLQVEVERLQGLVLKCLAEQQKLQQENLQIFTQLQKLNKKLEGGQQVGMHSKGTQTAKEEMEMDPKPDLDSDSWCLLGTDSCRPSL
Chain of CDK8 (human) (P49336 whole entry, looked up): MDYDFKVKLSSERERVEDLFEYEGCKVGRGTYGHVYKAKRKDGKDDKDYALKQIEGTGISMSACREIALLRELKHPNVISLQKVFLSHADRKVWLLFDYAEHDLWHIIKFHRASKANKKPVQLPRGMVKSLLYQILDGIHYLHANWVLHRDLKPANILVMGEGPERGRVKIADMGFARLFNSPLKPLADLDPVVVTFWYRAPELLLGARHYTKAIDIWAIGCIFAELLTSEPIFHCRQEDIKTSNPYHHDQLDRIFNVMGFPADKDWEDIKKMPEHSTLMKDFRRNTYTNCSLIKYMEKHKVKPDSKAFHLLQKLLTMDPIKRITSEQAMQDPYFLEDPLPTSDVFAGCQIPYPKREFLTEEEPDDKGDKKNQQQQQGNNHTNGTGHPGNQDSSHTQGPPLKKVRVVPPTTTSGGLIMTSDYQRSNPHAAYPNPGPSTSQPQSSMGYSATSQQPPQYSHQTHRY
Chain of STK33 (human) (Q9BYT3 whole entry, looked up): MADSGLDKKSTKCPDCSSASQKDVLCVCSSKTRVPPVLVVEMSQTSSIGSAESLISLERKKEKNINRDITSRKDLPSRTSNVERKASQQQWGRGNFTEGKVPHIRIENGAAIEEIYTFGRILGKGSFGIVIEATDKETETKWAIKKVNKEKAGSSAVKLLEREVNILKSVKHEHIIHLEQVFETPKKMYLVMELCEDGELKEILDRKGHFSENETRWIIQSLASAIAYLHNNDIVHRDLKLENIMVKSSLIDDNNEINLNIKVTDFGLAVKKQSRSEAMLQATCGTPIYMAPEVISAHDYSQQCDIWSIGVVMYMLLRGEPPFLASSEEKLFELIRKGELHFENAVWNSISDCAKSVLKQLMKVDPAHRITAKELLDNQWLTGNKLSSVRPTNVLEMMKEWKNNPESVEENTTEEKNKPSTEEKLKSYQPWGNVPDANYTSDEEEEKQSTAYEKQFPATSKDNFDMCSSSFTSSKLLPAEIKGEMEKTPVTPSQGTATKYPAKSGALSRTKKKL
Chain of MAP4K3 (human) (Q8IVH8 whole entry, looked up): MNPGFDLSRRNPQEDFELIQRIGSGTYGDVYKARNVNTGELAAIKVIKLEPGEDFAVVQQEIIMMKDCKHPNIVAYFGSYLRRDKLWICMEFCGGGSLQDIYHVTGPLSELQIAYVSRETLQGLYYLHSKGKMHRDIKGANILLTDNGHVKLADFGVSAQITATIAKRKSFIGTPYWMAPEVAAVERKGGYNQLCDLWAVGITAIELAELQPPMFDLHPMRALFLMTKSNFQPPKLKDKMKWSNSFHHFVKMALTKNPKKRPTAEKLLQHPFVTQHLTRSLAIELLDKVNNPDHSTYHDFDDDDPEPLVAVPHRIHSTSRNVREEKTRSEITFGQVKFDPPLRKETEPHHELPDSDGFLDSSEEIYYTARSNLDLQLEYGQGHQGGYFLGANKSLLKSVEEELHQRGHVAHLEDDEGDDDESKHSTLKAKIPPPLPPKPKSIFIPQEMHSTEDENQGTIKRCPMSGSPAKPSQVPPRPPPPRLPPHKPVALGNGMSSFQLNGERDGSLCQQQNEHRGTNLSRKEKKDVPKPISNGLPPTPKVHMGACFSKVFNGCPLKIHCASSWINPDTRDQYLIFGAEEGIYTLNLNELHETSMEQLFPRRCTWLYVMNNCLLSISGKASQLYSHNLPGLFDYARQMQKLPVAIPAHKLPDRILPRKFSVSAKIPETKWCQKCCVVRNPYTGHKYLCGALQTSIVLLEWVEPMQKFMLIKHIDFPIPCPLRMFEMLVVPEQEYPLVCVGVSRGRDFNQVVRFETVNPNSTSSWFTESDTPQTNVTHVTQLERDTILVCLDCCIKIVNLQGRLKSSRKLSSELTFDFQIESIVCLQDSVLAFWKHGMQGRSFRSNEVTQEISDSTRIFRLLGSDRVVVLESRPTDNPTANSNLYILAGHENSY
Chain of MAP2K1 (human) (Q02750 whole entry, looked up): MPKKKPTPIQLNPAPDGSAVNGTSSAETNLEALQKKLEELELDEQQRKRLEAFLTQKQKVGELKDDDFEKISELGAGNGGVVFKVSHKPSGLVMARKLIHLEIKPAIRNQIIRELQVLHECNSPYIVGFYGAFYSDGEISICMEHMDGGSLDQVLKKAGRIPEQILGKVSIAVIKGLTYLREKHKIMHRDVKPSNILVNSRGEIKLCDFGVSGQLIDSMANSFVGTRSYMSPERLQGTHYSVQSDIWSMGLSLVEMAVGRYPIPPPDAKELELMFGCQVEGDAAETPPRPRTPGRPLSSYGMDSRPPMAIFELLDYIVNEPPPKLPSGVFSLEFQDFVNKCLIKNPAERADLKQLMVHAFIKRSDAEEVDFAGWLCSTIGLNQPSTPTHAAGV
Chain of CDK16 (human) (Q00536 whole entry, looked up): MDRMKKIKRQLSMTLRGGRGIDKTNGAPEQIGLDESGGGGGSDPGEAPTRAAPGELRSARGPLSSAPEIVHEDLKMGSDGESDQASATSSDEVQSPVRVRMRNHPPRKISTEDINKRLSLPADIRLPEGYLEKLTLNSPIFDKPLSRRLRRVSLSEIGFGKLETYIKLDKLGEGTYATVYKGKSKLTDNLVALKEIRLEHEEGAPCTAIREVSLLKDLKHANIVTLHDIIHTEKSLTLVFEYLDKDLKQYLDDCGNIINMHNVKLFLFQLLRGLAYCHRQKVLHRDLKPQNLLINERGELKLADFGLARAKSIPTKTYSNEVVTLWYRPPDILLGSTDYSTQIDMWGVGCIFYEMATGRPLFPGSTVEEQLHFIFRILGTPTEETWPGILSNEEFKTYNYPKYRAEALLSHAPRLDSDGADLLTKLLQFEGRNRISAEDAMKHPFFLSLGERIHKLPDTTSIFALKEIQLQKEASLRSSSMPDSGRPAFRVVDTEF
Chain of RPS6KA1 KD2 (human) (Q15418 whole entry, looked up): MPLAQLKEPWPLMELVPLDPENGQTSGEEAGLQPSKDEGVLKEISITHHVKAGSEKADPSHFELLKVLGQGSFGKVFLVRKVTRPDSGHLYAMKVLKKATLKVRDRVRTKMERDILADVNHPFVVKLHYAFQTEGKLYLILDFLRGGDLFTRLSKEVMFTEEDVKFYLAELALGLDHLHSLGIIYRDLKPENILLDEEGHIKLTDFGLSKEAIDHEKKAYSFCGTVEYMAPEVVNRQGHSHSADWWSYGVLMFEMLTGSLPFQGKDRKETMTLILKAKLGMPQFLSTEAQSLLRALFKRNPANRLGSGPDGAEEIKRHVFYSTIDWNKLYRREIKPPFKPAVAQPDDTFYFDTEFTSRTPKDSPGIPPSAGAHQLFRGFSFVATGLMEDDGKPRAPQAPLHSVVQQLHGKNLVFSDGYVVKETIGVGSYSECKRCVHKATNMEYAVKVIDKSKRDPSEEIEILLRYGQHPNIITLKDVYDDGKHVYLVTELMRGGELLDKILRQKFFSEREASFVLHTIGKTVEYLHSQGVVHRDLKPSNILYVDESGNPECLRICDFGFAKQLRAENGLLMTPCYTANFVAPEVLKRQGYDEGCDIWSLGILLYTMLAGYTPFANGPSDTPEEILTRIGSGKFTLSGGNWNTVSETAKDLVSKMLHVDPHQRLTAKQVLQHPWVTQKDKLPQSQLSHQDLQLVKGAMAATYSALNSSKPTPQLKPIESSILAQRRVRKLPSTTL
Chain of RPS6KA1 KD1 (human) (Q15418 whole entry, looked up): as above
Chain of FGR (human) (P09769 whole entry, looked up): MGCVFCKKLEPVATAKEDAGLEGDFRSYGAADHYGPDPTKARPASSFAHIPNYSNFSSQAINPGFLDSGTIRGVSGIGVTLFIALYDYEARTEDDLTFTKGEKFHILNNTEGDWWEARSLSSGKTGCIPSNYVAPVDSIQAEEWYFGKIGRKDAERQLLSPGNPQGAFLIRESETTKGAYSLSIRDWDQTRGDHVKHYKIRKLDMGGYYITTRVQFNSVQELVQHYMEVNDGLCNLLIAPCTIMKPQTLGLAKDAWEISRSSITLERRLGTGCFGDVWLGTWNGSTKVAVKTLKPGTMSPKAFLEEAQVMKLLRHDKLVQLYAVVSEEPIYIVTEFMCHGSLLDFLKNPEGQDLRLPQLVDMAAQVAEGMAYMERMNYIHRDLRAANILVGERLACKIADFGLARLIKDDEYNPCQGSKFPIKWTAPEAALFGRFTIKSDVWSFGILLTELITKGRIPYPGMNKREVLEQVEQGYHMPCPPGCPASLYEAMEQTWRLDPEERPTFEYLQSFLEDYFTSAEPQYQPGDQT

Nc1ccc(-c2ccc3ncc4ccc(=O)n(-c5cccc(C(F)(F)F)c5)c4c3c2)cn1
kinase still bound, per cent of control (ACVR2A (human)): 95%
kinase still bound, per cent of control (AURKB (human)): 89%
kinase still bound, per cent of control (CAMK1G (human)): 88%
kinase still bound, per cent of control (CDK16 (human)): 98%
kinase still bound, per cent of control (CDK19 (human)): 100%
kinase still bound, per cent of control (CDK8 (human)): 100%
kinase still bound, per cent of control (CSNK1G2 (human)): 100%
kinase still bound, per cent of control (CSNK2A1 (human)): 79%
kinase still bound, per cent of control (DMPK (human)): 95%
kinase still bound, per cent of control (EIF2AK2 (human)): 70%
kinase still bound, per cent of control [1]: 100%
kinase still bound, per cent of control (EPHB1 (human)): 100%
kinase still bound, per cent of control (FGR (human)): 100%
kinase still bound, per cent of control (FLT1 (human)): 100%
kinase still bound, per cent of control (IRAK3 (human)): 42%
kinase still bound, per cent of control (KDR (human)): 100%
kinase still bound, per cent of control [2]: 55%
kinase still bound, per cent of control (MAP2K1 (human)): 100%
kinase still bound, per cent of control (MAP2K2 (human)): 100%
kinase still bound, per cent of control (MAP2K6 (human)): 93%
kinase still bound, per cent of control (MAP4K3 (human)): 63%
kinase still bound, per cent of control (NEK6 (human)): 92%
kinase still bound, per cent of control (NEK9 (human)): 100%
kinase still bound, per cent of control (NTRK2 (human)): 72%
kinase still bound, per cent of control (PAK1 (human)): 95%
kinase still bound, per cent of control (PDGFRA (human)): 62%
kinase still bound, per cent of control (PIP4K2B (human)): 100%
kinase still bound, per cent of control (PRKAA2 (human)): 95%
kinase still bound, per cent of control (PRKCD (human)): 88%
kinase still bound, per cent of control (RIOK2 (human)): 70%
kinase still bound, per cent of control (RIPK2 (human)): 54%
kinase still bound, per cent of control (RPS6KA1 KD1 (human)): 100%
kinase still bound, per cent of control (RPS6KA1 KD2 (human)): 100%
kinase still bound, per cent of control (RPS6KA4 KD2 (human)): 100%
kinase still bound, per cent of control (SGK110 (human)): 100%
kinase still bound, per cent of control (STK17A (human)): 100%
kinase still bound, per cent of control (STK33 (human)): 100%
kinase still bound, per cent of control (TTK (human)): 42%
kinase still bound, per cent of control (ULK2 (human)): 95%
kinase still bound, per cent of control (WEE2 (human)): 100%

COc1cc(N2CCN(C)CC2)ccc1Nc1nc(N)c(C(=O)c2c(Cl)cccc2Cl)s1
kinase still bound, per cent of control (AURKB (human)): 93%
kinase still bound, per cent of control (CAMK1G (human)): 42%
kinase still bound, per cent of control (CDK16 (human)): 62%
kinase still bound, per cent of control (CDK19 (human)): 93%
kinase still bound, per cent of control (CDK8 (human)): 100%
kinase still bound, per cent of control (CSNK1G2 (human)): 100%
kinase still bound, per cent of control (CSNK2A1 (human)): 91%
kinase still bound, per cent of control (DMPK (human)): 50%
kinase still bound, per cent of control (EIF2AK2 (human)): 75%
kinase still bound, per cent of control [1]: 100%
kinase still bound, per cent of control (EPHB1 (human)): 87%
kinase still bound, per cent of control (FGR (human)): 93%
kinase still bound, per cent of control (FLT1 (human)): 100%
kinase still bound, per cent of control (IRAK3 (human)): 90%
kinase still bound, per cent of control (KDR (human)): 97%
kinase still bound, per cent of control [2]: 100%
kinase still bound, per cent of control (MAP2K1 (human)): 100%
kinase still bound, per cent of control (MAP2K2 (human)): 93%
kinase still bound, per cent of control (MAP2K6 (human)): 85%
kinase still bound, per cent of control (MAP4K3 (human)): 100%
kinase still bound, per cent of control (NEK6 (human)): 100%
kinase still bound, per cent of control (NEK9 (human)): 100%
kinase still bound, per cent of control (NTRK2 (human)): 80%
kinase still bound, per cent of control (PAK1 (human)): 91%
kinase still bound, per cent of control (PDGFRA (human)): 84%
kinase still bound, per cent of control (PIP4K2B (human)): 100%
kinase still bound, per cent of control (PRKAA2 (human)): 68%
kinase still bound, per cent of control (PRKCD (human)): 68%
kinase still bound, per cent of control (RIOK2 (human)): 100%
kinase still bound, per cent of control (RIPK2 (human)): 70%
kinase still bound, per cent of control (RPS6KA1 KD1 (human)): 100%
kinase still bound, per cent of control (RPS6KA1 KD2 (human)): 58%
kinase still bound, per cent of control (RPS6KA4 KD2 (human)): 100%
kinase still bound, per cent of control (SGK110 (human)): 100%
kinase still bound, per cent of control (STK17A (human)): 100%
kinase still bound, per cent of control (STK33 (human)): 83%
kinase still bound, per cent of control (TTK (human)): 20%
kinase still bound, per cent of control (ULK2 (human)): 72%
kinase still bound, per cent of control (WEE2 (human)): 100%

CCCS(=O)(=O)Nc1ccc(F)c(C(=O)c2c[nH]c3ncc(-c4ccc(Cl)cc4)cc23)c1F
kinase still bound, per cent of control (ACVR2A (human)): 100%
kinase still bound, per cent of control (CAMK1G (human)): 92%
kinase still bound, per cent of control (CDK16 (human)): 96%
kinase still bound, per cent of control (CDK19 (human)): 0.8%
kinase still bound, per cent of control (CDK8 (human)): 4.6%
kinase still bound, per cent of control (CSNK1G2 (human)): 88%
kinase still bound, per cent of control (CSNK2A1 (human)): 100%
kinase still bound, per cent of control (DMPK (human)): 67%
kinase still bound, per cent of control (EIF2AK2 (human)): 81%
kinase still bound, per cent of control [1]: 0.55%
kinase still bound, per cent of control (EPHB1 (human)): 100%
kinase still bound, per cent of control (FGR (human)): 9.2%
kinase still bound, per cent of control (FLT1 (human)): 43%
kinase still bound, per cent of control (KDR (human)): 31%
kinase still bound, per cent of control [2]: 0.05%
kinase still bound, per cent of control (MAP2K1 (human)): 10%
kinase still bound, per cent of control (MAP2K2 (human)): 5.4%
kinase still bound, per cent of control (MAP2K6 (human)): 57%
kinase still bound, per cent of control (MAP4K3 (human)): 56%
kinase still bound, per cent of control (NEK6 (human)): 100%
kinase still bound, per cent of control (NEK9 (human)): 98%
kinase still bound, per cent of control (NTRK2 (human)): 78%
kinase still bound, per cent of control (PAK1 (human)): 95%
kinase still bound, per cent of control (PDGFRA (human)): 0.45%
kinase still bound, per cent of control (PIP4K2B (human)): 100%
kinase still bound, per cent of control (PRKAA2 (human)): 63%
kinase still bound, per cent of control (PRKCD (human)): 100%
kinase still bound, per cent of control (RIOK2 (human)): 100%
kinase still bound, per cent of control (RIPK2 (human)): 4.3%
kinase still bound, per cent of control (RPS6KA1 KD1 (human)): 57%
kinase still bound, per cent of control (RPS6KA1 KD2 (human)): 59%
kinase still bound, per cent of control (RPS6KA4 KD2 (human)): 96%
kinase still bound, per cent of control (SGK110 (human)): 100%
kinase still bound, per cent of control (STK17A (human)): 62%
kinase still bound, per cent of control (STK33 (human)): 94%
kinase still bound, per cent of control (TTK (human)): 57%
kinase still bound, per cent of control (ULK2 (human)): 100%
kinase still bound, per cent of control (WEE2 (human)): 100%
